From ChEMBL document CHEMBL1811831, “Minutissamides A-D, antiproliferative cyclic decapeptides from the cultured cyanobacterium Anabaena minutissima” (J Nat Prod, 2011)

System: HT-29
Test: Antiproliferative activity against human HT-29 cells
Format: functional, cell-based

SMILES | IC50 [µM]
C/C=C1/NC(=O)[C@H](CC(N)=O)NC(=O)/C(=C\C)NC(=O)[C@H](C(C)C)NC(=O)[C@H](O)[C@@H]([C@@H](C)CCCCCCCC)NC(=O)[C@@H]2CCCN2C(=O)[C@H](CC(N)=O)N(C)C(=O)[C@H]([C@@H](C)O)NC(=O)[C@@H](C)NC(=O)[C@H](CC(N)=O)NC1=O [MINUTISSAMIDE A] | 2
C/C=C1/NC(=O)[C@H](CC(N)=O)NC(=O)/C(=C\C)NC(=O)[C@H](C(C)C)NC(=O)[C@H](O)[C@@H]([C@@H](C)CCCCCCCCCl)NC(=O)[C@@H]2CCCN2C(=O)[C@H](CC(N)=O)N(C)C(=O)[C@H]([C@@H](C)O)NC(=O)[C@@H](C)NC(=O)[C@H](CC(N)=O)NC1=O [MINUTISSAMIDE B] | 20
